The values below are quoted from earlier work in patent US8906890B2, “Very low-dosed solid oral dosage forms for HRT” (Bayer Intellectual Property GmbH, priority 2010, dated 2014).

Each structure is given as a SMILES string.

For this series the following is noted: 2 mg E2 orally.

Consider `C[C@]12CC[C@@H]3c4ccc(O)cc4CC[C@H]3[C@@H]1CC[C@@H]2O` [E2, estradiol], for which the estrogen-related adverse events entry is “increased estrogen-related adverse events”.
